Measurements taken from ChEMBL document CHEMBL5030517, “6-Halopyridylmethylidene Penicillin-Based Sulfones Efficiently Inactivate the Natural Resistance of Pseudomonas aeruginosa to β-Lactam Antibiotics” (J Med Chem, 2021).
Converted amounts (≈) assume the structure as drawn. The source made the active and inactive calls. The rule behind the calls is not given here.

How the values were obtained:
[1] = Inhibition beta lactamase PDC-1 in Pseudomonas aeruginosa PAO1 using nitrocefin as substrate measured by 96 well microtitre plate
[2] = system: Pseudomonas aeruginosa PAO1; assay: Inhibition of beta-lactamase activity in Pseudomonas aeruginosa PAO1 23/14-053 (ST-309) assessed as MIC for cefpodoxime antibacterial activity at 4 mg/L by broth microdilution method
[3] = system: Pseudomonas aeruginosa PAO1; assay: Inhibition of beta-lactamase activity in Pseudomonas aeruginosa PAO1 deltadacB assessed as MIC for cefpodoxime antibacterial activity at 16 mg/L by broth microdilution method
[4] = Inhibition beta lactamase PDC-1 in Pseudomonas aeruginosa PAO1 assessed as apparent inhibition constant using nitrocefin as substrate measured by 96 well microtitre plate; details: read-out: Ki(app)
[5] = system: Pseudomonas aeruginosa PAO1; assay: Inhibition of beta-lactamase activity in Pseudomonas aeruginosa PAO1 deltaDdeltsDh2deltaDh3 assessed as MIC for cefpodoxime antibacterial activity at 16 mg/L by broth microdilution method
[6] = system: Pseudomonas aeruginosa PAO1; assay: Inhibition of beta-lactamase activity in Pseudomonas aeruginosa PAO1 deltaC+pUCP-(PDC-1) assessed as MIC for cefpodoxime antibacterial activity at 16 mg/L by broth microdilution method
[7] = system: Pseudomonas aeruginosa PAO1; assay: Inhibition of beta-lactamase activity in Pseudomonas aeruginosa PAO1 deltaDdeltsDh2deltaDh3 assessed as MIC for cefpodoxime antibacterial activity at 4 mg/L by broth microdilution method
[8] = system: Pseudomonas aeruginosa PAO1; assay: Inhibition beta lactamase PDC-1 in Pseudomonas aeruginosa PAO1 assessed as ratio of kinact/K1 using nitrocefin as substrate measured by 96 well microtitre plate
[9] = system: Pseudomonas aeruginosa PAO1; assay: Inhibition of beta-lactamase activity in Pseudomonas aeruginosa PAO1 assessed as MIC for cefpodoxime antibacterial activity at 4 mg/L by broth microdilution method
[10] = system: Pseudomonas aeruginosa PAO1; assay: Inhibition of beta-lactamase activity in Pseudomonas aeruginosa PAO1 6/04-224 (ST-175) assessed as MIC for cefpodoxime antibacterial activity at 16 mg/L by broth microdilution method
[11] = system: Pseudomonas aeruginosa PAO1; assay: Inhibition of beta-lactamase activity in Pseudomonas aeruginosa PAO1 deltadacBdeltadacC assessed as MIC for cefpodoxime antibacterial activity at 16 mg/L by broth microdilution method
[12] = system: Pseudomonas aeruginosa PAO1; assay: Inhibition of beta-lactamase activity in Pseudomonas aeruginosa PAO1 PAHUAC-14 (ST-966) assessed as MIC for cefpodoxime antibacterial activity at 4 mg/L by broth microdilution method
[13] = system: Pseudomonas aeruginosa PAO1; assay: Inhibition of beta-lactamase activity in Pseudomonas aeruginosa PAO1 deltaC assessed as MIC for cefpodoxime antibacterial activity at 4 mg/L by broth microdilution method
[14] = system: Pseudomonas aeruginosa PAO1; assay: Inhibition of beta-lactamase activity in Pseudomonas aeruginosa PAO1 deltaC+pUCP-(PDC-1) assessed as MIC for cefpodoxime antibacterial activity at 4 mg/L by broth microdilution method
[15] = system: Pseudomonas aeruginosa PAO1; assay: Inhibition of beta-lactamase activity in Pseudomonas aeruginosa PAO1 deltadacBdeltaampD assessed as MIC for cefpodoxime antibacterial activity at 16 mg/L by broth microdilution method
[16] = system: Pseudomonas aeruginosa PAO1; assay: Inhibition of beta-lactamase activity in Pseudomonas aeruginosa PAO1 53/22-113 (ST-244) assessed as MIC for cefpodoxime antibacterial activity at 16 mg/L by broth microdilution method
[17] = system: Pseudomonas aeruginosa PAO1; assay: Inhibition of beta-lactamase activity in Pseudomonas aeruginosa PAO1 17/14-017 (ST-235) assessed as MIC for cefpodoxime antibacterial activity at 4 mg/L by broth microdilution method
[18] = system: Pseudomonas aeruginosa PAO1; assay: Inhibition beta lactamase PDC-1 in Pseudomonas aeruginosa PAO1 assessed as deacylation off-rate using nitrocefin as substrate at 30 mins measured by 96 well microtitre plate
[19] = system: Pseudomonas aeruginosa PAO1; assay: Inhibition of beta lactamase PDC-1 in Pseudomonas aeruginosa PAO1 assessed as reduction in enzyme activity using nitrocefin as chromogenic substrate preincubated for 10 min using 96 well microtiter plate
[20] = system: Pseudomonas aeruginosa PAO1; assay: Inhibition of beta-lactamase activity in Pseudomonas aeruginosa PAO1 PAHUAC-27(ST-22) assessed as MIC for cefpodoxime antibacterial activity at 16 mg/L by broth microdilution method
[21] = system: Pseudomonas aeruginosa PAO1; assay: Inhibition beta lactamase PDC-1 in Pseudomonas aeruginosa PAO1 assessed as maximum rate of inactivation using nitrocefin as substrate measured by 96 well microtitre plate
[22] = system: Pseudomonas aeruginosa PAO1; assay: Inhibition of beta-lactamase activity in Pseudomonas aeruginosa PAO1 deltaC+pUCP-(PDC-5) assessed as MIC for cefpodoxime antibacterial activity at 16 mg/L by broth microdilution method
[23] = system: Pseudomonas aeruginosa PAO1; assay: Inhibition of beta-lactamase activity in Pseudomonas aeruginosa PAO1 deltaC+pUCP-(PDC-5) assessed as MIC for cefpodoxime antibacterial activity at 4 mg/L by broth microdilution method
[24] = system: Pseudomonas aeruginosa PAO1; assay: Inhibition of beta-lactamase activity in Pseudomonas aeruginosa PAO1 deltadacB assessed as MIC for cefpodoxime antibacterial activity at 4 mg/L by broth microdilution method
[25] = system: Pseudomonas aeruginosa PAO1; assay: Inhibition of beta-lactamase activity in Pseudomonas aeruginosa PAO1 deltaampD assessed as MIC for cefpodoxime antibacterial activity at 16 mg/L by broth microdilution method
[26] = system: Pseudomonas aeruginosa PAO1; assay: Inhibition of beta-lactamase activity in Pseudomonas aeruginosa PAO1 deltaampD assessed as MIC for cefpodoxime antibacterial activity at 4 mg/L by broth microdilution method
[27] = system: Pseudomonas aeruginosa PAO1; assay: Inhibition of beta-lactamase activity in Pseudomonas aeruginosa PAO1 PAHUAC-14 (ST-966) assessed as MIC for cefpodoxime antibacterial activity at 16 mg/L by broth microdilution method
[28] = system: Pseudomonas aeruginosa PAO1; assay: Inhibition of beta-lactamase activity in Pseudomonas aeruginosa PAO1 23/14-053 (ST-309) assessed as MIC for cefpodoxime antibacterial activity at 16 mg/L by broth microdilution method
Pseudomonas aeruginosa = assay: Inhibition of beta lactamase PDC-1 in Pseudomonas aeruginosa PAO1 for 30 min using MALDI TOF-MS analysis
[29] = system: Pseudomonas aeruginosa PAO1; assay: Inhibition of beta-lactamase activity in Pseudomonas aeruginosa PAO1 6/04-224 (ST-175) assessed as MIC for cefpodoxime antibacterial activity at 4 mg/L by broth microdilution method
[30] = system: Pseudomonas aeruginosa PAO1; assay: Inhibition of beta-lactamase activity in Pseudomonas aeruginosa PAO1 36/14-210 (ST-235) assessed as MIC for cefpodoxime antibacterial activity at 16 mg/L by broth microdilution method
[31] = system: Pseudomonas aeruginosa PAO1; assay: Inhibition of beta-lactamase activity in Pseudomonas aeruginosa PAO1 deltadacBdeltadacC assessed as MIC for cefpodoxime antibacterial activity at 4 mg/L by broth microdilution method
[32] = system: Pseudomonas aeruginosa PAO1; assay: Inhibition of beta-lactamase activity in Pseudomonas aeruginosa PAO1 17/14-017 (ST-235) assessed as MIC for cefpodoxime antibacterial activity at 16 mg/L by broth microdilution method
[33] = system: Pseudomonas aeruginosa PAO1; assay: Inhibition of beta-lactamase activity in Pseudomonas aeruginosa PAO1 13/09-018 (ST-175) assessed as MIC for cefpodoxime antibacterial activity at 16 mg/L by broth microdilution method
[34] = system: Pseudomonas aeruginosa PAO1; assay: Inhibition of beta-lactamase activity in Pseudomonas aeruginosa PAO1 deltadacBdeltapbpGdeltadacC assessed as MIC for cefpodoxime antibacterial activity at 4 mg/L by broth microdilution method
[35] = system: Pseudomonas aeruginosa PAO1; assay: Inhibition of beta-lactamase activity in Pseudomonas aeruginosa PAO1 13/09-018 (ST-175) assessed as MIC for cefpodoxime antibacterial activity at 4 mg/L by broth microdilution method
[36] = system: Pseudomonas aeruginosa PAO1; assay: Inhibition of beta-lactamase activity in Pseudomonas aeruginosa PAO1 deltadacBdeltaampD assessed as MIC for cefpodoxime antibacterial activity at 4 mg/L by broth microdilution method
[37] = system: Pseudomonas aeruginosa PAO1; assay: Inhibition of beta-lactamase activity in Pseudomonas aeruginosa PAO1 deltaC assessed as MIC for cefpodoxime antibacterial activity at 16 mg/L by broth microdilution method
[38] = system: Pseudomonas aeruginosa PAO1; assay: Inhibition of beta-lactamase activity in Pseudomonas aeruginosa PAO1 assessed as MIC for cefpodoxime antibacterial activity at 16 mg/L by broth microdilution method
[39] = system: Pseudomonas aeruginosa PAO1; assay: Inhibition of beta-lactamase activity in Pseudomonas aeruginosa PAO1 53/22-113 (ST-244) assessed as MIC for cefpodoxime antibacterial activity at 4 mg/L by broth microdilution method
[40] = system: Pseudomonas aeruginosa PAO1; assay: Inhibition of beta-lactamase activity in Pseudomonas aeruginosa PAO1 deltadacBdeltapbpGdeltadacC assessed as MIC for cefpodoxime antibacterial activity at 16 mg/L by broth microdilution method
[41] = system: Pseudomonas aeruginosa PAO1; assay: Inhibition beta lactamase PDC-1 in Pseudomonas aeruginosa PAO1 assessed half life of nitrocefin substrate measured by 96 well microtitre plate assay
[42] = system: Pseudomonas aeruginosa PAO1; assay: Inhibition of beta-lactamase activity in Pseudomonas aeruginosa PAO1 PAHUAC-27(ST-22) assessed as MIC for cefpodoxime antibacterial activity at 4 mg/L by broth microdilution method
[43] = system: Pseudomonas aeruginosa PAO1; assay: Inhibition of beta-lactamase activity in Pseudomonas aeruginosa PAO1 36/14-210 (ST-235) assessed as MIC for cefpodoxime antibacterial activity at 4 mg/L by broth microdilution method
[44] = system: Pseudomonas aeruginosa PAO1; assay: Inhibition beta lactamase PDC-1 in Pseudomonas aeruginosa PAO1 assessed as inactivation efficiency by measuring acylation rate (k2/K) using nitrocefin as substrate measured by 96 well microtitre plate

Structure (SMILES): C[C@]1(COC(=O)Cc2ccc(O)c(O)c2)[C@H](C(=O)O)N2C(=O)/C(=C/c3ccccn3)[C@H]2S1(=O)=O
- IC50 [1]: 6.1 nM
- MIC [2]: 1 µg/mL (≈ 2.05 µM)
- MIC [3]: 0.5 µg/mL (≈ 1.02 µM)
- Ki [4]: 53 nM
- MIC [5]: 0.5 µg/mL (≈ 1.02 µM)
- MIC [6]: 1 µg/mL (≈ 2.05 µM)
- MIC [7]: 4 µg/mL (≈ 8.19 µM)
- K [8]: 6.3 10^5/M/s
- MIC [9]: 1 µg/mL (≈ 2.05 µM)
- MIC [10]: 8 µg/mL (≈ 16.4 µM)
- MIC [11]: 0.5 µg/mL (≈ 1.02 µM)
- MIC [12]: 16 µg/mL (≈ 32.8 µM)
- MIC [13]: 1 µg/mL (≈ 2.05 µM)
- MIC [14]: 1 µg/mL (≈ 2.05 µM)
- MIC [15]: 1 µg/mL (≈ 2.05 µM)
- MIC [16]: 4 µg/mL (≈ 8.19 µM)
- MIC [17]: 2 µg/mL (≈ 4.09 µM)
- K [18]: 9 10^-2/min
- inhibition [19]: inactive
- MIC [20]: 1 µg/mL (≈ 2.05 µM)
- Kinact [21]: 0.046 s⁻¹
- MIC [22]: 2 µg/mL (≈ 4.09 µM)
- MIC [23]: 2 µg/mL (≈ 4.09 µM)
- MIC [24]: 1 µg/mL (≈ 2.05 µM)
- MIC [25]: 1 µg/mL (≈ 2.05 µM)
- MIC [26]: 2 µg/mL (≈ 4.09 µM)
- MIC [27]: 2 µg/mL (≈ 4.09 µM)
- MIC [28]: 1 µg/mL (≈ 2.05 µM)
- inhibition (Pseudomonas aeruginosa): inactive
- MIC [29]: 8 µg/mL (≈ 16.4 µM)
- MIC [30]: 8 µg/mL (≈ 16.4 µM)
- MIC [31]: 1 µg/mL (≈ 2.05 µM)
- MIC [32]: 2 µg/mL (≈ 4.09 µM)
- MIC [33]: 8 µg/mL (≈ 16.4 µM)
- MIC [34]: 1 µg/mL (≈ 2.05 µM)
- MIC [35]: 2 µg/mL (≈ 4.09 µM)
- MIC [36]: 8 µg/mL (≈ 16.4 µM)
- MIC [37]: 1 µg/mL (≈ 2.05 µM)
- MIC [38]: 1 µg/mL (≈ 2.05 µM)
- MIC [39]: 8 µg/mL (≈ 16.4 µM)
- MIC [40]: 0.5 µg/mL (≈ 1.02 µM)
- T1/2 [41]: 1.37 h
- MIC [42]: 2 µg/mL (≈ 4.09 µM)
- MIC [43]: 16 µg/mL (≈ 32.8 µM)
- k2/K inactivation efficiency [44]: 1.5 M⁻¹ s⁻¹
